Our source for the IC50 values is patent US10745399B2 (priority 2015, dated 2020).

The test system of this assay is CHK2 phosphorylation (phospho-Thr68) in HCT116 cells. The experiment in a line: Cellular pCHK2 assay, bleomycin-induced phosphorylation of CHK2 (phospho-Thr68), immunofluorescence high content. The class given is cell-based. As to conditions: Homo sapiens, HCT-116; HCT116 cells, 10 μM bleomycin, 4 h; read-out: IC50 (pCHK2). The source says:
For the identification of substances which inhibit the phosphorylation of the protein kinase CHK2 at the amino acid threonine 68, an immunofluorescence-based “high content” analysis assay was used in HCT116 cells.
In vitro cell-based immunofluorescence assay for the identification of inhibitors of bleomycin-induced phosphorylation of CHK2 (phospho-Thr68) in the human colon carcinoma cell line HCT116:
HCT116 cells are sown out in a defined cell density in 384-well plates in culture medium (DMEM high glucose, 2 mM GlutaMax, 1 mM Na pyruvate, 10% FCS) and incubated overnight at 37° C. and 10% of CO2. On the following day, the test substances are added in a defined concentration range (1 nM to 30 μM) in combination with 10 μM bleomycin, where the concentration of the solvent DMSO is kept constant at 0.5%. After incubation for four hours at 37° C. and 10% of CO2, the cells are fixed (5 min, 4% formaldehyde in PBS), permeabilised (10 min, 0.2% Triton X-100 in PBS) and, after blocking of nonspecific binding sites (10% goat serum, 1% BSA in PBS), incubated overnight at 4° C. with a specific anti-pCHK2 antibody (cell signalling #2661). pCHK2 (Thr68) is determined using an Alexa488-labelled secondary anti-rabbit IgG antibody. Parallel staining of DNA with propidium iodide enables determination of the cell count. The pCHK2 signal is detected using a high-content imager (Molecular Devices IMX Ultra) and automatic image analysis using the MetaXpress software belonging to the instrument. The number of cell nuclei which have a pCHK2 signal above a defined background is determined.
What is called IC50 is the midpoint of a concentration-inhibition curve. Take `COc1cc2ncc3c(c2cc1-c1cn(C)nn1)n(-c1cn(C)nc1C)c(=O)n3C` [Compound Example 42, 1-(1,3-Dimethyl-1H-pyrazol-4-yl)-7-methoxy-3-methyl-8-(1-methyl-1H-1,2,3-triazol-4-yl)-1,3-dihydroimidazo-[4,5-c]quinolin-2-one]: the IC50 fell in the range of 0.2 to 1 µM.

`COc1cc2ncc3c(c2cc1-c1cnn(C)c1)n(-c1ccc(C#N)cn1)c(=O)n3C` [Compound Example 48, 6-[7-Methoxy-3-methyl-8-(1-methyl-1H-pyrazol-4-yl)-2-oxo-2,3-dihydroimidazo-[4,5-c]quinolin-1-yl]-nicotinonitrile]: the half-inhibitory concentration (IC50) fell in the range of 0.2 to 1 µM.

Turning to `COc1cc2ncc3c(c2cc1-c1cnn(C)c1)n(-c1ccc(F)cn1)c(=O)n3C` [Compound Example 50, 1-(5-Fluoropyridin-2-yl)-7-methoxy-3-methyl-8-(1-methyl-1H-pyrazol-4-yl)-1,3-dihydroimidazo[4,5-c]-quinolin-2-one], the IC50 was in the range of 0.2 to 1 µM.

Turning to `COc1cc2ncc3c(c2cc1-c1cnn(C)c1)n(-c1ncccn1)c(=O)n3C` [Compound Example 52, 7-Methoxy-3-methyl-8-(1-methyl-1H-pyrazol-4-yl)-1-pyrimidin-2-yl-1,3-dihydro-imidazo[4,5-c]quinolin-2-one], the IC50 lay within 0.2 to 1 µM.

For `COc1cc2ncc3c(c2cc1-c1cnn(C)c1)n(-c1ccccn1)c(=O)n3C` [Compound Example 56, 7-Methoxy-3-methyl-8-(1-methyl-1H-pyrazol-4-yl)-1-pyridin-2-yl-1,3-dihydro-imidazo[4,5-c]quinolin-2-one], the IC50 was in the range of 0.2 to 1 µM.

Turning to `COc1cc2ncc3c(c2cc1-c1cn(C)nn1)n(-c1c(C)cncc1F)c(=O)n3C` [compound 63, 1-(3-Fluoro-5-methylpyridin-4-yl)-7-methoxy-3-methyl-8-(1-methyl-1H-1,2,3-triazol-4-yl)-1,3-dihydroimidazo-[4,5-c]quinolin-2-one], the IC50 fell in the range of 0.2 to 1 µM.

On to `COc1cc2ncc3c(c2cc1-c1cn(C)nn1)n(-c1ccncc1F)c(=O)n3C` [compound 64, 1-(3-Fluoropyridin-4-yl)-7-methoxy-3-methyl-8-(1-methyl-1H-1,2,3-triazol-4-yl)-1,3-dihydroimidazo-[4,5-c]quinolin-2-one], for which the half-inhibitory concentration (IC50) fell in the range of 0.2 to 1 µM.

In the case of `COc1cc2ncc3c(c2cc1-c1cc(N)n[nH]1)n(-c1ncccc1F)c(=O)n3C` [compound 65, 8-(3-Amino-1H-pyrazol-5-yl)-1-(3-fluoro-2-pyridyl)-7-methoxy-3-methyl-imidazo-[4,5-c]quinolin-2-one], the IC50 lay in the range of 0.2 to 1 µM.

For the compound `COc1cc2ncc3c(c2cc1-c1cnn(C)c1)n(-c1ccc2ccccc2n1)c(=O)n3C` [compound 68, 7-Methoxy-3-methyl-8-(1-methyl-1H-pyrazol-4-yl)-1-quinolin-2-yl-1,3-dihydro-imidazo[4,5-c]quinolin-2-one], the IC50 was 1 to 2 µM.

Turning to `COc1cc2ncc3c(c2cc1-c1cnn(C)c1)n(-c1ccc2cc[nH]c2n1)c(=O)n3C` [compound 69, 7-Methoxy-3-methyl-8-(1-methyl-1H-pyrazol-4-yl)-1-(1H-pyrrolo[2,3-b]pyridin-6-yl)1,3-dihydroimidazo-[4,5-c]quinolin-2-one], the IC50 was 0.2 to 1 µM.

Regarding `COc1cc2ncc3c(c2cc1-c1cnn(C)n1)n(-c1ncc(F)cc1F)c(=O)n3C` [compound 101, 1-(3,5-Difluoropyridin-2-yl)-7-methoxy-3-methyl-8-(2-methyl-2H-1,2,3-triazol-4-yl)-1,3-dihydroimidazo-[4,5-c]quinolin-2-one], the IC50 was less than 0.2 µM.

Take `COc1cc2ncc3c(c2cc1-c1cnn(C)n1)n(-c1cn(C)nc1C)c(=O)n3C` [compound 102, 1-(1,3-Dimethyl-1H-pyrazol-4-yl)-7-methoxy-3-methyl-8-(2-methyl-2H-1,2,3-triazol-4-yl)-1,3-dihydroimidazo-[4,5-c]quinolin-2-one]: the IC50 is less than 0.2 µM.

In the case of `CCn1cc(-c2cc3c(cc2OC)ncc2c3n(-c3ccncc3OC)c(=O)n2C)cn1` [compound 104, 8-(1-Ethyl-1H-pyrazol-4-yl)-7-methoxy-1-(3-methoxy-pyridin-4-yl)-3-methyl-1,3-dihydroimidazo[4,5-c] quinolin-2-one], the IC50 was in the range of 0.2 to 1 µM.

In the case of `COc1cnc(-n2c(=O)n(C)c3cnc4cc(OC)c(-c5cn(C)nc5C)cc4c32)c(F)c1` [compound 106, 8-(1,3-Dimethyl-1H-pyrazol-4-yl)-1-(3-fluoro-5-methoxypyridin-2-yl)-7-methoxy-3-methyl-1,3-dihydroimidazo[4,5-c]-quinolin-2-one], the IC50 lay within 0.2 to 1 µM.

As for `COc1cc2ncc3[nH]c(=O)n(-c4ncc(F)cc4F)c3c2cc1-c1cnn(C)c1` [compound 107, 1-(3,5-Difluoropyridin-2-yl)-7-methoxy-8-(1-methyl-1H-pyrazol-4-yl)-1,3-dihydro-imidazo[4,5-c]quinolin-2-one], the IC50 was in the range of 0.2 to 1 µM.

As to `COc1cnc(-n2c(=O)n(C)c3cnc4cc(OC)c(-c5ccn[nH]5)cc4c32)c(F)c1` [compound 109, 1-(3-Fluoro-5-methoxy-pyridin-2-yl)-7-methoxy-3-methyl-8-(2H-pyrazol-3-yl)-1,3-dihydroimidazo[4,5-c] quinolin-2-one], the IC50 was less than 0.2 µM.

As to `CCn1cc(-c2cc3c(cc2OC)ncc2c3n(-c3ncc(OC)cc3F)c(=O)n2C)cn1` [compound 111, 8-(1-Ethyl-1H-pyrazol-4-yl)-1-(3-fluoro-5-methoxy-pyridin-2-yl)-7-methoxy-3-methyl-1,3-dihydroimidazo-[4,5-c]quinolin-2-one], the IC50 lay within 0.2 to 1 µM.

As to `CCc1cncc(F)c1-n1c(=O)n(C)c2cnc3cc(OC)c(-c4cnn(C)n4)cc3c21` [compound 112, 1-(3-Ethyl-5-fluoropyridin-4-yl)-7-methoxy-3-methyl-8-(2-methyl-2H-1,2,3-triazol-4-yl)-1,3-dihydroimidazo-[4,5-c]quinolin-2-one], the IC50 fell in the range of 0.2 to 1 µM.

As to `CCOc1cnc(-n2c(=O)n(C)c3cnc4cc(OC)c(-c5cnn(C)c5)cc4c32)c(F)c1` [compound 113, 1-(5-Ethoxy-3-fluoropyridin-2-yl)-7-methoxy-3-methyl-8-(1-methyl-1H-pyrazol-4-yl)-1,3-dihydroimidazo[4,5-c]-quinolin-2-one], the IC50 is less than 0.2 µM.

On to `COc1cnc(-n2c(=O)[nH]c3cnc4cc(OC)c(-c5cnn(C)c5)cc4c32)c(F)c1` [compound 115, 1-(3-Fluoro-5-methoxy-pyridin-2-yl)-7-methoxy-8-(1-methyl-1H-pyrazol-4-yl)-1,3-dihydroimidazo[4,5-c]-quinolin-2-one], for which the IC50 fell in the range of 0.2 to 1 µM.

For `COc1cc2ncc3[nH]c(=O)n(-c4c(F)cncc4OC)c3c2cc1-c1cnn(C)c1` [compound 116, 1-(3-Fluoro-5-methoxy-pyridin-4-yl)-7-methoxy-8-(1-methyl-1H-pyrazol-4-yl)-1,3-dihydroimidazo[4,5-c]-quinolin-2-one], the IC50 lay in the range of 1 to 2 µM.

For `COc1cc2ncc3c(c2cc1-c1cnn(C)c1)n(-c1ncc(Cl)cc1F)c(=O)n3C` [compound 119, 1-(5-Chloro-3-fluoropyridin-2-yl)-7-methoxy-3-methyl-8-(1-methyl-1H-pyrazol-4-yl)-1,3-dihydroimidazo[4,5-c]-quinolin-2-one], the IC50 is less than 0.2 µM.

For the compound `COc1cc2ncc3c(c2cc1-c1ccn[nH]1)n(-c1c(F)cncc1OC)c(=O)n3C` [compound 124, 1-(3-Fluoro-5-methoxy-pyridin-4-yl)-7-methoxy-3-methyl-8-(2H-pyrazol-3-yl)-1,3-dihydroimidazo[4,5-c] quinolin-2-one], the IC50 was 0.2 to 1 µM.

For the compound `COc1cc2ncc3c(c2cc1-c1cnn(C)n1)n(-c1c(F)cncc1OC)c(=O)n3C` [compound 127, 1-(3-Fluoro-5-methoxy-pyridin-4-yl)-7-methoxy-3-methyl-8-(2-methyl-2H-1,2,3-triazol-4-yl)-1,3-dihydroimidazo[4,5-c] quinolin-2-one], the IC50 lay within 0.2 to 1 µM.

Consider `COc1cnc(-n2c(=O)n(C)c3cnc4cc(OC)c(-c5cnn[nH]5)cc4c32)c(F)c1` [compound 128, 1-(3-Fluoro-5-methoxy-pyridin-2-yl)-7-methoxy-3-methyl-8-(3H-1,2,3-triazol-4-yl)-1,3-dihydroimidazo-[4,5-c]quinolin-2-one], for which the IC50 was 0.2 to 1 µM.

With `COc1cc2ncc3[nH]c(=O)n(-c4c(F)cncc4OC)c3c2cc1-c1cn(C)nc1C` [compound 129, 8-(1,3-Dimethyl-1H-pyrazol-4-yl)-1-(3-fluoro-5-methoxy-pyridin-4-yl)-7-methoxy-1,3-dihydroimidazo[4,5-c]-quinolin-2-one], the IC50 is 1 to 2 µM.

`CCn1cc(-n2c(=O)n(C)c3cnc4cc(OC)c(-c5cnn(C)c5)cc4c32)c(C)n1` [compound 130, 1-(1-Ethyl-3-methyl-1H-pyrazol-4-yl)-7-methoxy-3-methyl-8-(1-methyl-1H-pyrazol-4-yl)-1,3-dihydro-imidazo[4,5-c]quinolin-2-one]: the IC50 was 0.2 to 1 µM.

Take `COc1cc2ncc3c(c2cc1-c1cn(C)nn1)n(-c1c(F)cncc1OC)c(=O)n3C` [compound 131, 1-(3-Fluoro-5-methoxy-pyridin-4-yl)-7-methoxy-3-methyl-8-(1-methyl-1H-1,2,3-triazol-4-yl)-1,3-dihydroimidazo[4,5-c]-quinolin-2-one]: the half-maximal inhibitory concentration (IC50) is 0.2 to 1 µM.
